Patent publication US10253002B2, “Compounds and methods of treating infections” (Neoculi Pty Ltd., priority 2013, dated 2019)

Experiments:
[1] = test system: lipid synthesis in S. aureus ATCC 29213; assay: Macromolecular synthesis assay: lipid synthesis ([3H] glycerol); format: cell-based, Staphylococcus aureus
Protocol: Cells were grown at 35° C. overnight on Trypticase Soy agar. A colony from the plate was used to inoculate 10 ml of Mueller Hinton broth II (MHBII), and the culture was grown to early exponential growth phase (OD600==0.2 to 0.3) while incubating in a shaker at 35° C. and 200 rpm.
Bacterial cells were grown to early exponential growth phase in MHBII broth and added to 1.5 mL eppendorf tubes (in triplicate) containing various concentrations of test compound or control antibiotics as described above. Following a 5 min incubation at room temperature, [^3H] glycerol was added at 0.5 μCi per reaction.
Reactions were allowed to proceed at room temperature for 15 min and then stopped through the addition of 375 μL chloroform/methanol (1:2) followed by vortexing for 20 seconds after each addition. Chloroform (125 μL) was then added to each reaction, vortexed, followed by the addition of 125 μL dH2O and vortexing. Reactions were centrifuged at 13,000 rpm for 10 min, and then 150 μL of the organic phase was transferred to a scintillation vial and allowed to dry in a fume hood for at least 1 hr. Samples were then counted via liquid scintillation counting.

[2] = test system: ATP release from S. aureus ATCC 29213; assay: ATP release assay (CellTiter-Glo); format: cell-based, Staphylococcus aureus; conditions: positive control; 8 fold the MIC (256 μg/mL); 30 min exposure
Protocol: The CellTiter-Glo Luminescent Cell Viability Assay (Promega) was utilized to measure the leakage of ATP from bacteria. […] The negative control received 2% DMSO, which represented the final DMSO concentration in each assay. After a 30 min exposure to drug, cells were sedimented by centrifugation and the supernatant was analyzed for the presence of ATP. Results were expressed as ATP concentration released to the medium (μM).

Molecule	inhibition of lipid synthesis [1] [%]	maximal ATP release [2]
C/C=C/C/C=C/CCC(=O)[C@H]1O[C@H]1C(N)=O [cerulenin, Cerulenin, reference compound]	72	–
Polymyxin B [reference compound]	–	approximately 0.34 μM
